Measurements taken from article PMC8159961, “Exploring protein hotspots by optimized fragment pharmacophores” (Nature Communications, 2021).
Several values for one entry are separate records, joined by “and”; a condition that tells them apart may be missing. Identical values can stand only once. Like-named read-outs stand apart in the source and are kept apart here.

Legend:
human thrombin = target: T1, human thrombin (Homo sapiens, UniProt P00734); experiment: Protease inhibitory assay, chromogenic substrate S-2238; assay type: biochemical; details: for vinit: replicate values; for Ki: Thrombin, one of two values averaged in Supplementary Data 1, read-out: Ki
T1 construct: human thrombin; purchased Sigma-Aldrich

bovine factor Xa = target: T2, bovine factor Xa (Bos taurus, UniProt P00743); experiment: Protease inhibitory assay, chromogenic substrate S-2222; assay type: biochemical; details: cmpd conc 200 µM; for vinit: replicate values; for Ki: FactorXa, one of two values averaged in Supplementary Data 1, read-out: Ki
T2 construct: bovine factor Xa, Chromogenix, 2 nkat/mL; purchased Chromogenix

[1] = Thrombin primary screening, substrate 40 µM, cmpd conc 500 µM
[2] = FactorXa Ki determination, substrate 100 µM
[3] = FactorXa Ki determination, substrate 200 µM
[4] = FactorXa primary screening, substrate 100 µM
[5] = Thrombin Ki determination, substrate 20 µM, cmpd conc 200 µM
[6] = Thrombin Ki determination, substrate 40 µM, cmpd conc 200 µM
[7] = substrate 20 µM, cmpd conc 200 µM
[8] = substrate 40 µM, cmpd conc 200 µM

T2 sequence (P00743 234-492 limits assumed): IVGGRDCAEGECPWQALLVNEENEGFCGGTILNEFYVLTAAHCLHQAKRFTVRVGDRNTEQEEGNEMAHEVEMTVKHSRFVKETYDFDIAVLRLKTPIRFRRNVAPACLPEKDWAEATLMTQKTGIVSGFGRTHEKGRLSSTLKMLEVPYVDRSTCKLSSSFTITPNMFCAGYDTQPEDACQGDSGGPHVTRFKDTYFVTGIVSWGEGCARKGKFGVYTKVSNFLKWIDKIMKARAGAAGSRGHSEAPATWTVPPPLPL
T2 sequence (P00743 41-180 partner limits assumed): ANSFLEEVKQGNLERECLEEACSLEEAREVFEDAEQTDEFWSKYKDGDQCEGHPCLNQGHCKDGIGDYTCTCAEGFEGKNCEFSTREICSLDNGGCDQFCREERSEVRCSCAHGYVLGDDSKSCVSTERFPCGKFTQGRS

SMILES	V0 / Vi (human thrombin; [1])	vinit (human thrombin; [1])	V0 / Vi (bovine factor Xa; [2])	vinit, avrg. (bovine factor Xa; [2])	vinit (bovine factor Xa; [2])	V0 / Vi (bovine factor Xa; [3])	vinit (bovine factor Xa; [3])	V0 / Vi (bovine factor Xa; [4])	vinit (bovine factor Xa; [4])	Ki (bovine factor Xa; substrate 100 µM)	Ki (bovine factor Xa; substrate 200 µM)	V0 / Vi (human thrombin; [5])	vinit, avrg. (human thrombin; [5])	vinit (human thrombin; [5])	V0 / Vi (human thrombin; [6])	vinit, avrg. (human thrombin; [6])	vinit (human thrombin; [6])	Ki (human thrombin; [7])	Ki (human thrombin; [8])
c1ccc(Nc2nncs2)cc1 [SX-D8]	0.99	30.873 and 31.527	1.15	14.126	15.1223 and 13.77 and 13.49	1.14	30.094 and 32.958 and 33.09	1.17	15.418 and 15.164	814 µM	652 µM								
CC1CCc2sc(C(=O)O)cc2C1 (stereo not drawn) [SX-D9]	1.40	23.527 and 20.764						1.04	17.818 and 16.655			1.41	18.876	19.443 and 19.03 and 18.15	1.17	28.950	33.096 and 26.331 and 27.42	57 µM	73 µM
c1ccc2oc(C3CCCNC3)nc2c1 (stereo not drawn) [SX-D10]	0.92	35.091 and 33.236						0.95	15 and 15.3										
COc1ccc(CN2CCNCC2)cc1F [SX-D11]	0.91	34.582 and 34.364						0.84	17.75 and 16.65										
NC(=O)N1CCC(C(=O)O)CC1 [SX-D12]	1.12	28.036 and 28.145						1.16	11.2 and 13.7			1.08	24.461	23.803 and 25.267 and 24.313	1.04	32.560	34.041 and 32.608 and 31.031	273 µM	329 µM
CC(=O)c1sc(-c2ccc(O)cc2)nc1C [SX-E1]	1.10	25.309 and 28	1.16	14.048	13.804 and 13.836 and 14.50	1.13	32.734 and 31.114 and 32.88	1.17	15.455 and 14.545	781 µM	687 µM	1.09	24.296	24.026 and 25.131 and 23.73	1.06	31.885	32.585 and 30.957 and 32.11	251 µM	207 µM
O=C(c1ccncc1)N1CCNCC1 [SX-E2]	0.93	31.236 and 31.673						0.96	17.673 and 18.8										
CC1C(=O)NC(=O)N1c1ccc(Cl)cc1 (stereo not drawn) [SX-E3]	0.98	29.964 and 29.673						1.01	17.673 and 16.982										
CCN(CC)c1cccc(C)c1 [SX-E4]	0.95	31.418 and 31.2						0.95	17.571 and 18.5										
O=C(CN1CCNCC1)c1ccccc1 [SX-E5]	1.06	28.618 and 27.418						0.97	18.286 and 17.357										
Clc1ccc2nnnn2n1 [SX-E6]	0.99	32.073 and 28.473						1.12	15.357 and 15.429										
c1cnc2c(c1)NCCC2 [SX-E7]	0.93	33.927 and 32.545						0.98	18.836 and 17.745										
COc1cccc(NC2=NCCCCC2)c1 [SX-E8]	0.88	35.818 and 34.764						0.96	18.764 and 18.473										
O=C(O)C1CCN(c2ncccn2)CC1 [SX-E9]	1.21	27.382 and 24						1.08	16.073 and 17.018			1.35	19.600	19.72 and 18.944 and 20.14	1.14	29.629	27.932 and 30.186 and 30.77	65 µM	87 µM
